Data reported in PubChem BioAssay AID179 (DTP/NCI, 2004).
The source made the active and inactive calls.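 The calls were made as follows: active = compounds giving half or more protection of infected cells from virus-caused growth loss, again on retest; inactive = the rest.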 Where a SMILES comes first, the peptide text is derived from it. [ ]: non-standard residue; d: D form. The star is where a group is joined. Phe(4-NO2) = N[CH](Cc1ccc([N+](=O)[O-])cc1)C(=O)O; Myristoyl = CCCCCCCCCCCCCC(=O)*; Boc = CC(C)(C)OC(=O)*

Test system: CEM cells HIV-1 protection, formazan growth assay
Test: NCI AIDS Antiviral Assay
Conditions: for IC50: measured here: growth of uninfected CEM cells
Outline: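 Category rules: moderately active means at least 50% protection on retest, and confirmed active means 100% protection reproducibly. The underlying data came from a formazan growth assay in HIV-1-infected CEM cells.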

Structure (SMILES)	EC50	IC50	outcome
CCCCCCCCCCCCCC(=O)NCC(=O)NC(CO)C(=O)NC(CO)C(=O)NC(CCCCN)C(=O)NC(CO)C(=O)NC(CCCCN)C(=O)N1CCCC1C(=O)NC(CCCCN)C(=O)NC(CC(=O)O)C(=O)N1CCCC1C(=O)NC(CO)C(=O)NC(CCC(N)=O)C(=O)NC(CCCNC(=N)N)C(=O)NC(CCCNC(=N)N)C(=O)NC(CCCNC(=N)N)C(=O)NC(Cc1ccc(O)cc1)C(N)=O (stereo not given) (Myristoyl-GSSKSKPKDPSQRRRY-NH2; configuration not given here)	> 120 µM	> 120 µM	–
COc1ccc(N2C(=O)C3c4[nH]c5ccc(OCc6ccccc6)cc5c4C4CCC(C(C)C)CC4C3C2=O)cc1 (stereo not given)	> 100 µM	> 100 µM	–
Nc1ccc(/C=C/c2ccc3cccnc3c2)cc1	0.0631 µM	> 200 µM	–
COC(=O)c1cc(C(=CCC2OCCO2)c2cc(Cl)c(OC)c(C(=O)OC)c2)cc(Cl)c1OC	> 52.5 µM	38.9 µM	–
COC(=O)C(CC(=O)Nc1ccc(C)cc1)C(=O)C(=O)Nc1c(C(C)C)cccc1C(C)C (stereo not given)	> 79.4 µM	> 79.4 µM	–
Cc1ccc(S(=O)(=O)SC(C)(C)C)cc1	> 29.5 µM	9.33 µM	–
CC1(C)CC2(C)CC1CC2(O)c1ccccc1 (stereo not given)	> 219 µM	61.7 µM	–
CCOC(=O)c1c(N2CCCC2)nsc1Nc1ccccc1	> 200 µM	145 µM	–
O=C(NCCO)c1cc2c(cn1)[nH]c1ccccc12	–	–	inactive
COc1ccc2c(c1)CCc1c-2n(CCN2CCCCC2)c2ccc(OC)cc12	> 100 µM	> 100 µM	–
CN1C(=S)C(c2ccccc2)Sc2ccccc21 (stereo not given)	> 200 µM	42.7 µM	–
O=C1c2ccccc2C(=O)c2sccc21	> 200 µM	7.24 µM	–
CCCCCCCCCCCCCCCCOP(=O)(O)OCC(N)C(=O)O (stereo not given)	> 200 µM	18.6 µM	–
O=C1CC2(C[C@@H]3CCCCCCCCC[C@@H](C3)C2)N1 (stereo not given in full)	> 200 µM	40.7 µM	–
O=C(O)CCC(=O)Oc1ccc(O)c2c1CCCC2=O	> 339 µM	> 339 µM	–
C=C1CN(S(=O)(=O)c2ccc(C)cc2)CCCN(CC2CCCCC2)CCCN(S(=O)(=O)c2ccc(C)cc2)C1	> 46.8 µM	1.17 µM	–
Cc1cc(C)cc(NC(N)=S)c1	> 1000 µM	> 1000 µM	–
C[N+](C)(CCO)CCN1c2ccccc2Sc2ccccc21	> 200 µM	> 200 µM	–
Cc1nnc(N)nc1/C=C\c1ccc(Cl)cc1Cl	> 200 µM	50.1 µM	–
CCCC[C@@H](C)/C=C1\CN2CCC[C@H]2[C@@](C)(O)[C@@H]1O	> 200 µM	75.9 µM	–
COc1ccc(/C=C2/SC(=Nc3ccccc3)N(NC(=O)Cc3ccccc3)C2=O)cc1	> 214 µM	148 µM	–
COc1ccc2c(c1)CCN1CCCc3ccc(OC)cc3C21 (stereo not given)	> 200 µM	51.3 µM	–

Structure (SMILES)	EC50	IC50	outcome
CCOc1csc([C@H]2CCC3[C@@H]4CC=C5C[C@@H](OC(=O)CCC(=O)O)CC[C@]5(C)C4CC[C@@]32C)n1 (stereo not given in full)	> 50.1 µM	33.9 µM	–
CC1(C)C2CCC1(C)C(OC(=O)/C=C/C(=O)OC1CC3CCC1(C)C3(C)C)C2 (stereo not given)	–	–	inactive
c1cc(CN2CCNCCNCCNCC2)cc(CN2CCNCCNCCNCC2)c1	> 200 µM	> 200 µM	–
C=C1CC(CNc2cc(Cl)nc(N)n2)C1	> 200 µM	55 µM	–
CC(=O)NC(CCCNCc1ccccc1)C(=O)NCc1ccccc1 (stereo not given)	> 708 µM	> 708 µM	–
CN(C)C(=O)NC1(N(C)C)CC1	> 200 µM	> 200 µM	–
Cc1cn(C2CC(N=[N+]=[N-])C(COC(=O)CCCCCCCCCCOc3ccc(I)cc3)O2)c(=O)[nH]c1=O (stereo not given)	0.117 µM	17.8 µM	–
CCCCCCCC(=O)c1ccc(O)c(C(=O)Nc2ccc(C(F)(F)F)cc2)c1	> 33.1 µM	5.01 µM	–
Cc1ccc(C)c(NC(=O)/C(=N\N)C(c2cnc3ccc([N+](=O)[O-])cc3n2)[N+](=O)[O-])c1 (stereo not given)	> 589 µM	219 µM	–
Nc1ccn(C2CCC(CO)O2)c(=S)n1 (stereo not given)	> 200 µM	> 200 µM	–
CC(C)CCC[C@@H](C)C1CCC2[C@@H]3CCC4CC(=C(c5cc(Cl)c(O)c(C(=O)O)c5)c5cc(Cl)c(O)c(C(=O)O)c5)CC[C@]4(C)C3CC[C@@]21C (stereo not given in full)	47.9 µM	148 µM	–
O=C(NO)Nc1ccc(Cl)c(Cl)c1	–	56.2 µM	inactive
COc1ccc(/C=C/CN(C)CCc2ccccc2)cc1OC	–	–	inactive
[N-]=[NH+]CC(=O)OC(COCc1ccccc1)COCc1ccccc1	> 200 µM	117 µM	–
O=[N+]([O-])c1cccc(S(=O)(=O)OCn2ncc3ccc([N+](=O)[O-])cc32)c1	> 200 µM	151 µM	–
Nc1cccc(C(=O)/C=C/c2ccccc2O)c1	> 282 µM	55 µM	–
COc1ccc(C2=Nn3c(nc4sc5c(c4c3=O)CCCC5)SC2)cc1	> 200 µM	> 200 µM	–
COc1ccc2c(c1)CCc1cnc(=S)[nH]c1-2	> 40.7 µM	> 40.7 µM	–
CNC(=O)N(C1CCCCC1)C1CCCCC1	> 200 µM	110 µM	–
COc1cc(N)c2c(c1)SCC(=O)N2	> 200 µM	148 µM	–
C[N+](C)(C)CC(=O)N/N=C(/CC(=O)CC(C1=C(O)c2ccccc2OC1)c1ccccc1)C(=O)Nc1cccc(Cl)c1 (stereo not given)	> 151 µM	> 151 µM	–
COC1=CC(=O)C(CO)=CC1=O	> 200 µM	7.59 µM	–

Structure (SMILES)	EC50	IC50	outcome
CC(/C=C/C=C/C=C/C=C/C=C/C(O)=C1/C(=O)C(CCC(=O)O)N(C)C1=O)=C\C(C)C(OC1CC(O)C(O)C(C)O1)C(C)C (stereo not given)	–	–	inactive
O=C(O)C(O)(O)C(O)(O)C(=O)O	> 200 µM	> 200 µM	–
CC(C)(C)[Si](C)(C)Oc1cc(CO)cc2c1cc(=N)o[n+]2[O-]	> 200 µM	10.2 µM	–
Cc1ncc[pH]1 (stereo not given)	> 138 µM	> 138 µM	–
COC(=O)[C@@H]1CN(C(=O)CCc2ccccc2)C(=O)N1	> 200 µM	> 200 µM	–
O=C(/C=C/c1cccnc1)c1ccccc1	> 123 µM	7.59 µM	–
COc1ccc(-c2oc3ccc(C)cc3c(=O)c2O)cc1	> 52.5 µM	> 52.5 µM	–
O=C(C=Nc1ccccc1C(=O)[O-])c1ccco1.O=C(C=Nc1ccccc1C(=O)[O-])c1ccco1.[Ni+2]	> 1.91 µM	> 1.91 µM	–
Cn1cnc([N+](=O)[O-])c1Sc1ncccn1	> 1050 µM	38 µM	–
N#Cc1nc(C2OC(COC(=O)c3ccccc3)C(OC(=O)c3ccccc3)C2OC(=O)c2ccccc2)oc1N (stereo not given)	> 18.2 µM	9.77 µM	–
Cc1cccc(Cl)c1NC=O	–	–	inactive
N.N.N.N.N.O=C([O-])CCl.[Co+3].[O-][Cl+3]([O-])([O-])[O-]	–	–	inactive
O=S(=O)(SSS(=O)(=O)c1ccc(Cl)c(Cl)c1)c1ccc(Cl)c(Cl)c1	> 53.7 µM	> 53.7 µM	–
COc1cc(C)c2c(=O)c3c(oc2c1)C(=O)c1c(OC)c(OC)cc(OC)c1C3=O	–	–	inactive
CC(=O)Oc1cc(OC(C)=O)c2c(c1)OC(c1ccc(OC(C)=O)c(OC(C)=O)c1)CC2=O (stereo not given)	> 57.5 µM	> 57.5 µM	–
N#CC1C(=O)NC(=O)C(C#N)C12CCCC(C(F)(F)F)C2 (stereo not given)	> 200 µM	> 200 µM	–
CCOC(=O)c1c(-c2ccc(OC)cc2)c(C#N)c(=S)n(C2OC(CO)C(O)C(O)C2O)c1-c1ccccc1 (stereo not given)	> 200 µM	34.7 µM	–
CC(=O)C(C=NCCN=CC(C(C)=O)C(C)=O)C(C)=O.[Ni]	> 200 µM	> 200 µM	–
Cc1ccc(S(=O)(=O)OC2COCOC2C2OCOC3COCOC32)cc1 (stereo not given)	> 200 µM	> 200 µM	–
Nc1ccn([C@H]2CO[C@@H](CO)[C@@H]2O)c(=O)n1	> 200 µM	> 200 µM	–
COc1nc2c(c(=O)n1C)N[C@H]1[C@H](OC(C)=O)[C@@H](OC(C)=O)CO[C@H]1N2	> 200 µM	> 200 µM	–
CN1CCC23CCCC[C@H]2C1CC1=C3CC(=O)CC1 (stereo not given in full)	> 692 µM	263 µM	–

Structure (SMILES)	EC50	IC50	outcome
O=C1CCC(c2nc3cc(Cl)ccc3o2)C(=O)N1 (stereo not given)	> 245 µM	> 245 µM	–
COC(=O)CCC(NC(=O)OC(C)(C)C)C(=O)NC(Cc1ccc([N+](=O)[O-])cc1)C(=O)NC(CCC(=O)OC)C(=O)OC (stereo not given) (Boc-Glu(OMe)-[Phe(4-NO2)]-Glu(OMe)-OMe; configuration not given here)	> 100 µM	47.9 µM	–
CN(C)/C=N/c1cc(=O)n(C)c(=O)n1C	–	–	inactive
CC1=CC(=O)CCC2(C)C1CC[C@@H]2OC=O (stereo not given in full)	–	–	inactive
Cc1cn(C2COC(C)(CO)O2)c(=O)[nH]c1=O (stereo not given)	> 200 µM	> 200 µM	–
C=CCc1c(C(O)CNC(C)C)ccc(OC)c1OCc1ccccc1 (stereo not given)	> 200 µM	30.2 µM	–
C=C1CC(C)(COc2ccc3c(C)cc(=O)oc3c2)OC1=O (stereo not given)	> 20 µM	0.501 µM	–
O=c1cc[nH]c(=O)n1C1CCC(CO)O1 (stereo not given)	> 200 µM	> 200 µM	–
[N-]=[N+]=NCCOCn1ccc(=O)[nH]c1=O	> 200 µM	> 200 µM	–
O=C1CSC(c2c[nH]c3ccccc23)N1c1ccc(Cl)cc1Cl (stereo not given)	> 257 µM	56.2 µM	–
COC(=O)C(=O)C(C(=O)C(=O)Nc1ccc(F)cc1)c1nc2ccc([N+](=O)[O-])cc2[nH]c1=O (stereo not given)	> 550 µM	245 µM	–
Cc1cc(NS(=O)(=O)c2ccc(NC(=O)c3ccc(Cl)c4c(Nc5ccc(S(N)(=O)=O)cc5)c5ccccc5nc34)cc2)no1	> 38.9 µM	26.3 µM	–
COc1ccc2c(c1)C(=O)OCCC2	> 200 µM	> 200 µM	–
O=C(O)c1cccc(S(=O)(=O)NN2C(=O)CSC2c2ccccc2Cl)c1 (stereo not given)	> 195 µM	166 µM	–
COc1cc(O)c2c(c1O)C(=O)c1cc(C)ncc1C2=O	–	–	inactive
O=[N+]([O-])C(=C(N1CCOCC1)N1CCOCC1)/C(Cl)=C(\Cl)Br	> 200 µM	9.77 µM	–
CCOC1=NC(C(F)(F)F)(C(F)(F)F)N=C(N2CCOCC2)O1	> 200 µM	> 200 µM	–
Cc1n[nH]c(=O)n1/N=C/c1ccncc1	> 200 µM	102 µM	–
Cc1ccc(-c2c(C#N)c(-c3ccc(N(C)C)cc3)c(C#N)c(=O)n2NS(=O)(=O)c2ccccc2)cc1	> 200 µM	18.2 µM	–
